Values after ≈ are worked out from the molar mass of the structure shown. Where two headings read alike, the source gives them in different places.
How the values were obtained:
Format in all cases: cell-based
Prevotella bivia = assay: Agar dilution MIC (CLSI), Prevotella bivia vaginal isolates
Peptoniphilus harei = assay: Agar dilution MIC (CLSI), Peptoniphilus harei vaginal isolates; conditions: for MIC: read-out: Minimal Inhibitory Concentration (MIC)
Peptoniphilus lacrimalis = assay: Agar dilution MIC (CLSI), Peptoniphilus lacrimalis vaginal isolates; conditions: for Number of strains with indicated MIC: 20 samples; for MIC: read-out: Minimal Inhibitory Concentration (MIC)
[1] = Peptoniphilus harei, # tested 23
[2] = Peptoniphilus lacrimalis, # tested 20

SMILES: CCC[C@@H]1C[C@@H](C(=O)N[C@@H]([C@H]2O[C@H](SC)[C@H](O)[C@@H](O)[C@H]2O)[C@H](C)Cl)N(C)C1 [Clindamycin]
- Minimal Inhibitory Concentration (MIC) (Prevotella bivia; isolate 601096 25): >128 µg/mL
- Minimal Inhibitory Concentration (MIC) (Prevotella bivia; isolate 601166 M): >128 µg/mL
- Minimal Inhibitory Concentration (MIC) (Prevotella bivia; isolate 601202 21): >128 µg/mL
- Minimal Inhibitory Concentration (MIC) (Prevotella bivia; isolate 601213 9A): >128 µg/mL
- Minimal Inhibitory Concentration (MIC) (Prevotella bivia; isolate 601214 B): >128 µg/mL
- Minimal Inhibitory Concentration (MIC) (Prevotella bivia; isolate 601241 13): >128 µg/mL
- Minimal Inhibitory Concentration (MIC) (Prevotella bivia; isolate 601243 15): >128 µg/mL
- Minimal Inhibitory Concentration (MIC) (Prevotella bivia; isolate 601255 10): >128 µg/mL
- Minimal Inhibitory Concentration (MIC) (Prevotella bivia; isolate 601261 C): >128 µg/mL
- Minimal Inhibitory Concentration (MIC) (Prevotella bivia; isolate 601283 20): >128 µg/mL
- Minimal Inhibitory Concentration (MIC) (Prevotella bivia; isolate 601285 14): >128 µg/mL
- Minimal Inhibitory Concentration (MIC) (Prevotella bivia; isolate 601305 H): >128 µg/mL
- Minimal Inhibitory Concentration (MIC) (Prevotella bivia; isolate 601340 31): >128 µg/mL
- Minimal Inhibitory Concentration (MIC) (Prevotella bivia; isolate 601374 A1): >128 µg/mL
- Minimal Inhibitory Concentration (MIC) (Prevotella bivia; isolate 601378 B): >128 µg/mL
- Minimal Inhibitory Concentration (MIC) (Prevotella bivia; isolate 601379 19): >128 µg/mL
- Minimal Inhibitory Concentration (MIC) (Prevotella bivia; isolate 601389 10): >128 µg/mL
- Minimal Inhibitory Concentration (MIC) (Prevotella bivia; isolate 601392 14): >128 µg/mL
- Minimal Inhibitory Concentration (MIC) (Prevotella bivia; isolate 601429 1): >128 µg/mL
- Minimal Inhibitory Concentration (MIC) (Prevotella bivia; isolate 601433 19): >128 µg/mL
- Minimal Inhibitory Concentration (MIC) (Prevotella bivia; isolate 601449 E): >128 µg/mL
- Minimal Inhibitory Concentration (MIC) (Prevotella bivia; isolate 601453 A): >128 µg/mL
- Minimal Inhibitory Concentration (MIC) (Prevotella bivia; isolate 601455 D1): >128 µg/mL
- Minimal Inhibitory Concentration (MIC) (Prevotella bivia; isolate 601458 16): >128 µg/mL
- Susceptible (Prevotella bivia; number (%) of isolates, # tested 34): 9 (26) μg/ml
- Resistant (Prevotella bivia; number (%) of isolates, # tested 34, resistance: rifaximin >32, metronidazole >32, clindamycin >8 μg/ml): 25 (74) μg/ml
- Number of strains with indicated MIC (Peptoniphilus harei; MIC >[…], 23 samples): 2
- MIC (Peptoniphilus harei; Peptoniphilus harei, isolate 601098V Q): 1 µg/mL (≈ 2.35 µM)
- MIC (Peptoniphilus harei; Peptoniphilus harei, isolate 601203V 8): 0.25 µg/mL (≈ 0.588 µM)
- MIC (Peptoniphilus harei; Peptoniphilus harei, isolate 601212V 15): 1 µg/mL (≈ 2.35 µM)
- MIC (Peptoniphilus harei; Peptoniphilus harei, isolate 601248V 23): 0.5 µg/mL (≈ 1.18 µM)
- MIC (Peptoniphilus harei; Peptoniphilus harei, isolate 601259V 11): 1 µg/mL (≈ 2.35 µM)
- MIC (Peptoniphilus harei; Peptoniphilus harei, isolate 601289V C): 1 µg/mL (≈ 2.35 µM)
- MIC (Peptoniphilus harei; Peptoniphilus harei, isolate 601293V 21): 0.25 µg/mL (≈ 0.588 µM)
- MIC (Peptoniphilus harei; Peptoniphilus harei, isolate 601302V F1): 0.5 µg/mL (≈ 1.18 µM)
- MIC (Peptoniphilus harei; Peptoniphilus harei, isolate 601311V R): 0.125 µg/mL (≈ 0.294 µM)
- MIC (Peptoniphilus harei; Peptoniphilus harei, isolate 601326V F): 1 µg/mL (≈ 2.35 µM)
- MIC (Peptoniphilus harei; Peptoniphilus harei, isolate 601342V F): 0.125 µg/mL (≈ 0.294 µM)
- MIC (Peptoniphilus harei; Peptoniphilus harei, isolate 601355V D): 0.25 µg/mL (≈ 0.588 µM)
- MIC (Peptoniphilus harei; Peptoniphilus harei, isolate 601365V 14): 0.125 µg/mL (≈ 0.294 µM)
- MIC (Peptoniphilus harei; Peptoniphilus harei, isolate 601374V F): 0.5 µg/mL (≈ 1.18 µM)
- MIC (Peptoniphilus harei; Peptoniphilus harei, isolate 601388V Q): 0.5 µg/mL (≈ 1.18 µM)
- MIC (Peptoniphilus harei; Peptoniphilus harei, isolate 601399V 16): 0.25 µg/mL (≈ 0.588 µM)
- MIC (Peptoniphilus harei; Peptoniphilus harei, isolate 601409V L): 0.25 µg/mL (≈ 0.588 µM)
- MIC (Peptoniphilus harei; Peptoniphilus harei, isolate 601413V 16): 0.25 µg/mL (≈ 0.588 µM)
- MIC (Peptoniphilus harei; Peptoniphilus harei, isolate 601426V D): 0.125 µg/mL (≈ 0.294 µM)
- MIC (Peptoniphilus harei; Peptoniphilus harei, isolate 601430V 22): 0.125 µg/mL (≈ 0.294 µM)
- MIC (Peptoniphilus harei; Peptoniphilus harei, isolate 601539V 25B): 0.25 µg/mL (≈ 0.588 µM)
- MIC (Peptoniphilus harei; Peptoniphilus harei): > 128 µg/mL
- MIC50 (Peptoniphilus harei; [1]): 0.5 µg/mL (≈ 1.18 µM)
- MIC90 (Peptoniphilus harei; [1]): 1 µg/mL (≈ 2.35 µM)
- Minimal Inhibitory Concentration (MIC) (Peptoniphilus harei; isolate 426868V D): >128 µg/mL
- Susceptible (Peptoniphilus harei; number (%) of isolates, # tested 23): 21 (91) μg/ml
- Resistant (Peptoniphilus harei; number (%) of isolates, # tested 23, resistance: rifaximin >32, metronidazole >32, clindamycin >8 μg/ml): 2 (9) μg/ml
- Number of strains with indicated MIC (Peptoniphilus lacrimalis; MIC 0.06 μg/ml): 1
- Number of strains with indicated MIC (Peptoniphilus lacrimalis; MIC 8 μg/ml): 1
- Number of strains with indicated MIC (Peptoniphilus lacrimalis; MIC >[…]): 3
- MIC (Peptoniphilus lacrimalis; Peptoniphilus lacrimalis, isolate 601028V 27A): 128 µg/mL (≈ 301 µM)
- MIC (Peptoniphilus lacrimalis; Peptoniphilus lacrimalis, isolate 601060V 32A): 0.125 µg/mL (≈ 0.294 µM)
- MIC (Peptoniphilus lacrimalis; Peptoniphilus lacrimalis, isolate 601078V O): 0.125 µg/mL (≈ 0.294 µM)
- MIC (Peptoniphilus lacrimalis; Peptoniphilus lacrimalis, isolate 601084V c): 0.125 µg/mL (≈ 0.294 µM)
- MIC (Peptoniphilus lacrimalis; Peptoniphilus lacrimalis, isolate 601105V 13): 0.06 µg/mL (≈ 0.141 µM)
- MIC (Peptoniphilus lacrimalis; Peptoniphilus lacrimalis, isolate 601139V 17): 128 µg/mL (≈ 301 µM)
- MIC (Peptoniphilus lacrimalis; Peptoniphilus lacrimalis, isolate 601255V 12): 0.25 µg/mL (≈ 0.588 µM)
- MIC (Peptoniphilus lacrimalis; Peptoniphilus lacrimalis, isolate 601293V 15): 0.25 µg/mL (≈ 0.588 µM)
- MIC (Peptoniphilus lacrimalis; Peptoniphilus lacrimalis, isolate 601305V K-1): 0.25 µg/mL (≈ 0.588 µM)
- MIC (Peptoniphilus lacrimalis; Peptoniphilus lacrimalis, isolate 601318V E): 8 µg/mL (≈ 18.8 µM)
- MIC (Peptoniphilus lacrimalis; Peptoniphilus lacrimalis, isolate 601330V H): 0.25 µg/mL (≈ 0.588 µM)
- MIC (Peptoniphilus lacrimalis; Peptoniphilus lacrimalis, isolate 601336V 47): 0.25 µg/mL (≈ 0.588 µM)
- MIC (Peptoniphilus lacrimalis; Peptoniphilus lacrimalis, isolate 601365V 13): 0.125 µg/mL (≈ 0.294 µM)
- MIC (Peptoniphilus lacrimalis; Peptoniphilus lacrimalis, isolate 601368V 39): 0.25 µg/mL (≈ 0.588 µM)
- MIC (Peptoniphilus lacrimalis; Peptoniphilus lacrimalis, isolate 601375V E): 0.25 µg/mL (≈ 0.588 µM)
- MIC (Peptoniphilus lacrimalis; Peptoniphilus lacrimalis, isolate 601388V B): 0.25 µg/mL (≈ 0.588 µM)
- MIC (Peptoniphilus lacrimalis; Peptoniphilus lacrimalis, isolate 601401V I): 0.25 µg/mL (≈ 0.588 µM)
- MIC (Peptoniphilus lacrimalis; Peptoniphilus lacrimalis): > 128 µg/mL
- MIC50 (Peptoniphilus lacrimalis; [2]): 0.25 µg/mL (≈ 0.588 µM)
- MIC90 (Peptoniphilus lacrimalis; [2]): > 128 µg/mL
- Minimal Inhibitory Concentration (MIC) (Peptoniphilus lacrimalis; isolate 601261V O): >128 µg/mL
- Minimal Inhibitory Concentration (MIC) (Peptoniphilus lacrimalis; isolate 601296V N): >128 µg/mL
- Susceptible (Peptoniphilus lacrimalis; number (%) of isolates, # tested 20): 14 (70) μg/ml
- Resistant (Peptoniphilus lacrimalis; number (%) of isolates, # tested 20, resistance: rifaximin >32, metronidazole >32, clindamycin >8 μg/ml): 6 (30) μg/ml
